Reference: patent publication US20060281680A1, “Methods and compositions for modulating vascular integrity” (GENENTECH, INC., priority 2005, published 2006)
Where a chain is given by its changes, count along the chain named. Numbers in names are those of the source.

B1: PlGF: VEGFR-1 selective ligand (protein, UniProt P49763 19-221, looked up)
Placenta growth factor: LPAVPPQQWALSAGNGSSEVEVVPFQEVWGRSYCRALERLVDVVSEYPSEVEHMFSPSCVSLLRCTGCCGDENLHCVPVETANVTMQLLKIRSGDRPSYVELTFSQHVRCECRHSPGRQSPDMPGDFRADAPSFLPPRRSLPMLFRMEWGCALTGSQSAVWPSSPVPEEIPRMHPGRNGKKQQRKPLREKMKPERCGDAVPRR
B2: VEGFR2-sel: KDR-selective VEGF mutant: VEGF D63S/G65M/L66R (protein)
chain: APMAEGGGQNHHEVVKFMDVYQRSYCHPIETLVDIFQEYPDEIEYIFKPSCVPLMRCGGCCNSEMRECVPTEESNITMQIMRIKPHQGQHIGEMSFLQHNKCECRPKKDRARQENPCGPCSERRKHLFVQDPQTCKCSCKNTDSRCKARQLELNERTCRCDKPRR
B3: VEGFR1-sel: Flt-selective VEGF mutant I43A/I46A/Q79A/I83 (protein)
chain: B2 chain with I43A, I46A, S63D, M65G, R66L, Q79A

Tests used:
Format in all cases: cell-based, human
DSCR1 [1] = assay: DSCR1 expression analysis by real-time RT-PCR (TaqMan) in HUVECs; details: for DSCR1 mRNA levels: HUVECs, after 5.5 hours; for DSCR1 expression levels (real-time RT-PCR): serum-starved HUVECs, over 36 hours
From the text: (§1) Cells and cell assays. Primary human endothelial cells were purchased from Clonetics (Santa Rosa, Calif.) and cultured according to the manufacturer's instructions. For gene calling experiments, human umbilical vein endothelial cells (HUVECs) were purchased from Clonetics (BioWhittaker, Walkersville, Md.) and maintained in endothelial growth medium (EBM-2) complemented with 5% fetal calf serum (FCS) following the manufacturer's instructions. Cells (1×107) were split at a cell density of 19 000 cell/cm2 and triplicate experiments for each condition were run in parallel. Twenty-four hours after plating the cells, cell were washed 3 times with phosphate-buffered saline (PBS) and media (Clonetics) containing either 0.1% bovine serum albumin (BSA) or 0.1% BSA plus VEGF (30 ng/mL) or 5% FCS. RNA isolation and reverse transcription-PCR (RT-PCR) analysis was performed as described.^21 For cell culture experiments, the following conditions were used: human (h) VEGF, 30 ng/mL; hTNF-α, 10 ng/mL; PMA, 200 ng/mL (Calbiochem, LaJolla, Calif.); CsA, 1 μM (Calbiochem); IO 5 μM (Sigma, St Louis, Mo.); thapsigargin, 50 nM (Sigma). In one instance inhibiting (si) RNAs were generated by Dharmacon (Lafayette, Colo.) based on the full-length cDNAs of the respective gene and using the “Smart-pool” service (Dharmacon, Lafayette, Colo.). For adenoviral transduction survival experiments, human umbilical vein endothelial cells (HUVECs) were maintained in endothelial growth medium (EBM-2) complemented with 5% FCS following the manufacturer's instructions. 3×10^5 cells were split per well of a 6 well plate (Primaria, BD Biosciences, Bedford, Mass.) and duplicate experiments for each condition were run in parallel. Cells were infected with adenovirus (MOI=100) encoding for a gD peptide (Ad-Control), DSCR1 (Ad-DSCR1) or an antisense construct with the coding sequence inverted (Ad-DSCR1-AS) for 2 h in serum free media containing 10 mM […] and 10 nM MgCl2 on a vertical shaker at room temperature. Thereafter, 5 times the volume of regular growth medium containing 5% FCS was added and cells were kept for 1 day in a CO2 incubator. Thereafter, cells were washed three times with PBS and basal media (Clonetics, Santa Rosa, Calif.) containing 0.1 % BSA was added and PMA/IO, H202, and ZVAD as indicated. 24 hours after serum starvation and dosing, cell were counted on a Coulter brand style cell counter. For cell culture experiments, the following conditions were used: PMA: 200 ng/ml (Calbiochem, LaJolla, Calif.), Ionomycine: 5 μM (Sigma, St. Louis, Mo.), a 3% H202 solution was diluted 1:300 in basal media, 0.1% BSA to result in a 0.01% H202 solution, ZVAD 5 μM.

DSCR1 [2] = assay: Western blot of DSCR1 protein in whole cell extracts of HUVECs; details: 6 hours of stimulation
Protocol: Cells cultured in 10-cm dishes were washed twice in Tris (tris(hydroxymethyl)aminomethane)-buffered saline, and 0.6 mL RIPA buffer (10 mM PBS, 1% Nonidet P-40, 0.5% sodium deoxycholate, 0.1% sodium dodecyl sulfate [SDS], […] phenylmethylsulfonyl fluoride, 30 μg/mL aprotinin, 1 mM sodium orthovanadate), and protease inhibitors (Roche Pharmaceuticals, Gaithersburg, Md.) were added. Mouse monoclonal antibody (mAb) directed against human NFATc 1, c2, and c3 was purchased from Santa Cruz Biotechnology (Santa Cruz, Calif.). Affinity-purified goat polyclonal antibody against human E-selectin, vascular cell adhesion molecule-1 (VCAM-1), intercellular adhesion molecule-1 (ICAM-1), and Cox-2 was from BD Pharmingen. Total endothelial cell extract, polyacrylamide gel electrophoresis (PAGE), blotting, and immunodetection were performed according to the Santa Cruz Biotechnology protocol. A total of […] whole-cell extract was loaded on each lane of a 4% to 16% polyacrylamide gel. The enhanced chemiluminescence (ECL) reaction kit was purchased from Amersham Pharmacia Biotech (Piscataway, N.J.), and horseradish peroxidase streptavidin from Vector Laboratories (Burlingame, Calif.) was used. For NFATc1 experiments, equal amounts of cell extract were loaded to visualize NFATc1 (mAb 7A6; 1:500; Santa Cruz Biotechnology) and the loading control α-tubulin (mAb from ICN, Santa Ana, Calif.; 1:5000). For Cox-2 and TF immunoblot analysis equal amounts of cell lysate were loaded on a 6% to 12% gradient SDS-PAGE. Cox-2 was analyzed with an anti-Cox2 mAb (RDI, 1:500) and TF with an anti-hTF mAb (clone 7G11) was generated at Genentech, and used at a 1:500 dilution. Before loading the samples on the gel, the protein amounts were quantified and adjusted accordingly. As loading control, an anti-γ-adaptin mAb was used (1:1000) on a 4% to 20% polyacrylamide gel.
DSCR1 was PCR amplified with primers DSCR1-EcoRI-Pro 5′, adding an extra proline and DSCR1-Stop-XhoI 3′, by using DSCR1 cDNA as a template and cloned into pGEX-KG. GST-DSCR1 was expressed and purified essentially as described previously.^23 Polyclonal rabbit anti-GST-DSCR1 was prepared by immunization with recombinant GST-DSCR1. Filtered crude serum was used for Western blots (1:400).

Cox-2, E-selectin, TF = assay: Real-time RT-PCR of inflammatory marker / VEGF target genes in HUVECs; details: activated endothelial cells, 4 hours of incubation
From the text: as §1

DSCR1 [3] = assay: DSCR1 expression by real-time RT-PCR in HPAECs, HMVECs and HUAECs; details: HMVECs, HUAECs
From the text: Cells and cell assays. Primary human endothelial cells were purchased from Clonetics (Santa Rosa, Calif.) and cultured according to the manufacturer's instructions. For gene calling experiments, human umbilical vein endothelial cells (HUVECs) were purchased from Clonetics (BioWhittaker, Walkersville, Md.) and maintained in endothelial growth medium (EBM-2) complemented with 5% fetal calf serum (FCS) following the manufacturer's instructions. Cells (1×107) were split at a cell density of 19 000 cell/cm2 and triplicate experiments for each condition were run in parallel. Twenty-four hours after plating the cells, cell were washed 3 times with phosphate-buffered saline (PBS) and media (Clonetics) containing either 0.1% bovine serum albumin (BSA) or 0.1% BSA plus VEGF (30 ng/mL) or 5% FCS. RNA isolation and reverse transcription-PCR (RT-PCR) analysis was performed as described.^21 For cell culture experiments, the following conditions were used: human (h) VEGF, 30 ng/mL; hTNF-α, 10 ng/mL; PMA, 200 ng/mL (Calbiochem, LaJolla, Calif.); CsA, 1 μM (Calbiochem); IO 5 μM (Sigma, St Louis, Mo.); thapsigargin, 50 nM (Sigma). […] 24 hours after serum starvation and dosing, cell were counted on a Coulter brand style cell counter. […]

Row | Molecule | DSCR1 mRNA levels (DSCR1 [1]) | DSCR1 protein levels (DSCR1 [2]) | DSCR1 expression levels (real-time RT-PCR) (DSCR1 [1]) | further results
1 | ionomycine [reference compound] | significantly increased |  |  | 
2 | C/C=C(/C)C(=O)O[C@H]1C(C)=C2[C@H]([C@@H]1OC(=O)CCCCCCC)[C@@](C)(OC(C)=O)C[C@H](OC(=O)CCC)[C@@]1(O)[C@H]2OC(=O)[C@@]1(C)O [thapsigargin, reference compound] | significantly increased | induction of DSCR1 |  | induction of COX2, E-selectin and TF mRNA (Cox-2, E-selectin, TF): significant induction
3 | b-FGF: basic fibroblast growth factor, R&D Systems |  | no significant increase | did not alter DSCR1 levels significantly | 
4 | TNF-α | significantly increased | unable to detect increased DSCR1 protein levels |  | 
5 | B1 |  |  | failed to induce alterations in DSCR1 expression | 
6 | B2 |  |  | equally potent to VEGF | DSCR1 expression (real-time RT-PCR) (DSCR1 [3]): increased levels of DSCR1 expression
7 | B3 |  |  | failed to induce alterations in DSCR1 expression | 
